This is an account of results in US11547681B2, “N-acylethanolamide derivatives and uses thereof” (ELIEM THERAPEUTICS, INC., priority 2016, dated 2023).

A value given as a limit tells only on which side of the number the result lay.

Data set [1] can be described thus: in vitro. As to conditions: both, human; for Concentration (μM) of analyte PEA, 0 min / Concentration of analyte I-9 / Concentration of analyte PEA / Concentration (μM) of analyte PEA, 10 min / Concentration (μM) of analyte PEA, 20 min / Concentration (μM) of analyte PEA, 30 min / Concentration (μM) of analyte PEA, 60 min / % Remaining of Initial (n = 1) / % Remaining of Initial (n = 1), 0 min / % Remaining of Initial (n = 1), 10 min / % Remaining of Initial (n = 1), 20 min / % Remaining of Initial (n = 1), 30 min / % Remaining of Initial (n = 1), 60 min / Concentration, analyte PEA: 1 μM. In outline:
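Test article (1 μM final) pre-equilibrated with intestinal S9 at 37 °C, then reaction started with cofactor cocktail; sampled at 0, 10, 20, 30 and 60 min and quenched in acidified acetonitrile. Prodrug and released PEA quantified by LC-MS/MS; half-life from single-phase exponential fit of percent remaining versus time 0.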

A short description of data set [2]: Plasma stability (37° C., pH 7.4), dog. In kind it is in vitro ADME, Beagle dog. As to conditions: for % Remaining of Initial (n = 1), 0 min / % Remaining of Initial (n = 1), 15 min / % Remaining of Initial (n = 1), 30 min / % Remaining of Initial (n = 1), 60 min / % Remaining of Initial (n = 1), 120 min: dog plasma; for % Remaining of Initial (n = 1), 0 min: pH 7.4, 0 min; for % Remaining of Initial (n = 1), 15 min: pH 7.4, 15 min; for % Remaining of Initial (n = 1), 30 min: pH 7.4, 30 min; for % Remaining of Initial (n = 1), 60 min: pH 7.4, 60 min; for % Remaining of Initial (n = 1), 120 min: pH 7.4, 120 min; for half-life at 1 μM: male, Beagle, dog, plasma; for % Remaining of Initial (n = 1): Dog plasma. Here is the method: (§1) Studies were carried out in mixed-gender human plasma (Lot #GLP530-5), male Sprague-Dawley rat (Lot #RAT297944, RAT313140), male CD-1 mouse (Lot #MSE237700), and male Beagle dog (Lot #BGL87670, BGL82614), collected on sodium heparin. Plasma was adjusted to pH 7.4 prior to initiating the experiments. DMSO stocks were first prepared for the test articles. Aliquots of the DMSO solutions were dosed into 700 μL of plasma, which had been pre-warmed to 37° C., at a final test article concentration of 1 μM. […] Samples were stored at 4° C. until the end of the experiment. After the final time point was sampled, the plate was mixed and then centrifuged at 3,000 rpm for 10 minutes. Calibration standards were prepared in matched matrix. […] Analytical conditions are outlined in Appendix 8-1.
as §1, with “#AS1650-2),” for “#GLP530-5),”, “#RAT297944),” for “#RAT297944, RAT313140),”, “CD-I” for “CD-1”, “#BGL91384),” for “#BGL87670, BGL82614),”, “10-1.” for “8-1.”
Studies were carried out in mixed-gender human plasma (Lot #AS1650-2), male Sprague-Dawley rat (Lot #RAT297944), male CD-1 mouse (Lot #MSE237700), and male Beagle dog (Lot #BGL91384), collected on sodium heparin. Plasma was adjusted to pH 7.4 prior to initiating the experiments. DMSO stocks were first prepared for test articles. […] Samples were stored at 4° C. until the end of experiment. After the final time point was sampled, the plate was mixed and then centrifuged at 3,000 rpm for 10 minutes. Calibration standards were prepared in matched matrix. […] Analytical conditions are outlined in Appendix 13-1.
Studies were carried out in mixed-gender human plasma (Lot #AS 1650-2), male Sprague-Dawley rat (Lot #RAT320835), male CD-1 mouse (Lot #MSE260693), and 6 male Beagle dog (Lot #BGL91384), on sodium heparin. Plasma was adjusted to pH 7.4 prior to initiating the experiments. DMSO stocks were first prepared for the test articles. Aliquots of the DMSO solutions were dosed into 700 μL of plasma, which had been pre-warmed to 37° C., at a final test article concentration of 1 μM. […] Samples were stored at 4° C. until the end of the experiment. After the final time point was sampled, the plate was mixed and then centrifuged at 3,000 rpm for 10 minutes. Calibration standards were prepared in matched matrix. […] Analytical conditions are outlined in Appendix 17-1.

Setting [3] is: pH 7.4, dog plasma, test article 1 μM, 37° C., pH 7.4.

As usually defined, the microsomal CLint is a measure of how fast metabolising enzymes remove a compound, apart from limits set by blood flow. One may read the half-life as the time needed for the level to fall by half in the phase considered. Consider `CCCCCCCCCCCCCCCC(=O)NCCOC(=O)CCC(=O)OCC(O)CO` (stereo not drawn) [Compound I-9], for which the “Concentration (μM) of analyte PEA, 0 min” value in data set [1] (0 min) is 0.048 µM. Besides, the “Concentration of analyte I-9” value in data set [1] (0 min) was 610 nM; in data set [1] (10 min) it was 360 nM; in data set [1] (20 min), 99 nM; in data set [1] (30 min) it was 29 nM; in data set [1] (60 min) it was 4.3 nM. For the same molecule, the “Concentration of analyte PEA” value is 210 nM in data set [1] (0 min); 500 nM in data set [1] (10 min); 690 nM in data set [1] (20 min); 650 nM in data set [1] (30 min); 660 nM in data set [1] (60 min). Also, the “Concentration (μM) of analyte PEA, 10 min” value in data set [1] (10 min) amounted to 0.18 µM. The “Concentration (μM) of analyte PEA, 20 min” value in data set [1] (20 min) was 0.23 µM. In addition, the “Concentration (μM) of analyte PEA, 30 min” value in data set [1] (30 min) is 0.22 µM. For the same molecule, in data set [1] (60 min), the “Concentration (μM) of analyte PEA, 60 min” value was determined as 0.18 µM. The “% Remaining of Initial (n = 1)” value is 100% in data set [1] (s9, 0 h); 59% in data set [1] (s9, 10 min); 16% in data set [1] (s9, 20 min); <1.0% in data set [1] (s9, 1 h). In addition, the “% Remaining of Initial (n = 1), 0 min” value in data set [1] (s9, 0 h) is reported as 100%; in data set [2] (test article 1 μM, 37° C.), 100%. The “% Remaining of Initial (n = 1), 10 min” value in data set [1] (s9, 10 min) was 28%. Further, the “% Remaining of Initial (n = 1), 20 min” value in data set [1] (s9, 20 min) was 5.7%. Moreover, the “% Remaining of Initial (n = 1), 30 min” value in data set [1] (s9, 0.5 h) was 1.2%; in data set [2] (test article 1 μM, 37° C.) it was 12%. Moreover, the “% Remaining of Initial (n = 1), 60 min” value in data set [1] (s9, 1 h) was <1.0%; in data set [2] (test article 1 μM, 37° C.), 1.2%. For the same molecule, the microsomal CLint at 1 μM in data set [1] (s9, CLint) was > 69.3 µL/min/mg; in data set [1] (s9, CLint (mL/min/mg protein)), 131 µL/min/mg; in data set [1] (s9, CLint, calculated value in parentheses) it was 75.3 µL/min/mg. For the same molecule, the half-life at 1 μM is 9.2 min in data set [1] (s9, Half-Life, calculated value in parentheses); < 10 min in data set [1] (s9, Half-life); 5.3 min in data set [1] (s9, Half-life (min)); 4.7 min in data set [2] (setting [3]). Besides, in data set [2] (test article 1 μM, 37° C.), the “% Remaining of Initial (n = 1), 15 min” value is on record as 8.7%. Also, the “% Remaining of Initial (n = 1), 120 min” value in data set [2] (test article 1 μM, 37° C.) was <1.0%.
Regarding `CCCCCCCCCCCCCCCC(=O)NCCOC(=O)CCC(=O)OCC(COC(=O)CCC)OC(=O)CCC` (stereo not drawn) [Compound I-11], the “Concentration (μM) of analyte PEA, 0 min” value in data set [1] (0 min) came to 0.018 µM. The “Concentration (μM) of analyte PEA, 10 min” value in data set [1] (10 min) was 0.13 µM. In addition, the “Concentration (μM) of analyte PEA, 20 min” value in data set [1] (20 min) was 0.20 µM. The “Concentration (μM) of analyte PEA, 30 min” value in data set [1] (30 min) was found to be 0.21 µM. Further, the “Concentration (μM) of analyte PEA, 60 min” value in data set [1] (60 min) was 0.18 µM. Moreover, the “% Remaining of Initial (n = 1), 0 min” value in data set [1] (s9, 0 h) is reported as 100%. Moreover, the “% Remaining of Initial (n = 1), 10 min” value in data set [1] (s9, 10 min) came out at 4.1%. For the same molecule, the “% Remaining of Initial (n = 1), 20 min” value in data set [1] (s9, 20 min) came to 1.2%. In data set [1] (s9, 0.5 h), the “% Remaining of Initial (n = 1), 30 min” value was <1.0%. In addition, the “% Remaining of Initial (n = 1), 60 min” value in data set [1] (s9, 1 h) was <1.0%. In addition, in data set [2] (test article 1 μM, 37° C.), the “% Remaining of Initial (n = 1), 0 min” value amounted to 100%; the “% Remaining of Initial (n = 1), 15 min” value worked out at 61%; the “% Remaining of Initial (n = 1), 30 min” value was determined as 40%; the “% Remaining of Initial (n = 1), 60 min” value was found to be 18%. Also, the “% Remaining of Initial (n = 1), 120 min” value in data set [2] (test article 1 μM, 37° C.) is 5.4%. The half-life at 1 μM in data set [2] (setting [3]) was found to be 23 min.
On to `CCCCC/C=C\C/C=C\CCCCCCCC(=O)OCC(COC(=O)CCC(=O)OCCNC(=O)CCCCCCCCCCCCCCC)OC(=O)CCCCCCC/C=C\C/C=C\CCCCC` (stereo not drawn) [Compound I-13], for which the “Concentration, analyte PEA” value in data set [1] (0 min) is 0 nM; in data set [1] (10 min) it was 10 nM; in data set [1] (20 min) it was 14 nM; in data set [1] (30 min), 18 nM; in data set [1] (60 min) it was 31 nM. In addition, the “% Remaining of Initial (n = 1)” value was 100% in data set [1] (s9, 0 h); 86% in data set [1] (s9, 10 min); 86% in data set [1] (s9, 20 min); 86% in data set [1] (s9, 0.5 h); 59% in data set [1] (s9, 1 h); 100% in data set [2] (0 min, 1 μM). Moreover, the “% Remaining of Initial (n = 1)” value came out at 90% in data set [2] (15 min, 1 μM); 72% in data set [2] (30 min, 1 μM); 54% in data set [2] (60 min, 1 μM); 23% in data set [2] (120 min, 1 μM). Also, the microsomal CLint at 1 μM in data set [1] (s9, CLint) was < 11.6 µL/min/mg; in data set [1] (s9, CLint, calculated (in parentheses)) it was 7.57 µL/min/mg. Further, the half-life at 1 μM was > 60 min in data set [1] (s9, Half-life); 92 min in data set [1] (s9, Half-life, calculated (in parentheses)); 61 min in data set [2] (pH 7.4, Dog plasma, 1 μM).
